In assay [1] the target is T1, Peptidyl-glycine alpha-amidating monooxygenase (Homo sapiens, UniProt P19021).
T1 sequence (P19021 whole entry): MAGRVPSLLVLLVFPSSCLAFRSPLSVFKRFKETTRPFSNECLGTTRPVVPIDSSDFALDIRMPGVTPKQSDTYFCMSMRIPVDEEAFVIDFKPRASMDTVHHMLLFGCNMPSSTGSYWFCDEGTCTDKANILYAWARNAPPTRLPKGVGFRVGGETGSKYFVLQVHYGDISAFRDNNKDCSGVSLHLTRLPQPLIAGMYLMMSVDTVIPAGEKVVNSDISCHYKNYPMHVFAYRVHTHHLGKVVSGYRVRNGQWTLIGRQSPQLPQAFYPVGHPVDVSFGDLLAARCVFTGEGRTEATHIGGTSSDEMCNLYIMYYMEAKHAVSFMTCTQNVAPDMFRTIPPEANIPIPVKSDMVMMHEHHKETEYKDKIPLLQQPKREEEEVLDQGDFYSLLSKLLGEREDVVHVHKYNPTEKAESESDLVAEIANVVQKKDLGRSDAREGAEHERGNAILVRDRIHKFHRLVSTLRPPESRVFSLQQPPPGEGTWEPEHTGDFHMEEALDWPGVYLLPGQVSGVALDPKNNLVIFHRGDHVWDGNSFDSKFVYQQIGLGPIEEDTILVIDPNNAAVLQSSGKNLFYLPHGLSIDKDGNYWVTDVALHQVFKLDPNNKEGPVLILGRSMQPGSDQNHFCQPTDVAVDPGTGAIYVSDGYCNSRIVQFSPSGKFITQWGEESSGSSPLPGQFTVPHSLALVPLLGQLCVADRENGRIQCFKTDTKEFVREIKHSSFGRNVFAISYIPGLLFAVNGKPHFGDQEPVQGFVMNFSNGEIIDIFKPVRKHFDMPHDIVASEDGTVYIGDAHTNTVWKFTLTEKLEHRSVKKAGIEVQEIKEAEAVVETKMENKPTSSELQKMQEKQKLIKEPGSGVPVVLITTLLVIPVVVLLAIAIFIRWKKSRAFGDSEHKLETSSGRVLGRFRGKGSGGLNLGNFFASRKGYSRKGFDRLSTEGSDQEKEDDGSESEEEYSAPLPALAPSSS
Nature of the assay: Competitive inhibition of PAM in human DMS53 cells using as(R)-Tyr-(S)-Val-Gly as substrate after 2 hrs by HPLC analysis. The format is cell-based, DMS-53.

Assay [2] deals with T1, Peptidyl-glycine alpha-amidating monooxygenase. Nature of the assay: Competitive inhibition of secreted PAM in human DMS53 cell culture medium using as(R)-Tyr-(S)-Val-Gly as substrate after 2 hrs by HPLC analysis. Set-up: species or system DMS-53.

pIC50: −log10 of the molar value.

With `C[C@H](N)C(=O)N1CCC[C@H]1C(=O)OCC(=O)O`, the results for the negative logarithm of the IC50 (pIC50) in assay [1] and in assay [2] were 3.43 and 3.54, respectively.
Turning to `C[C@H](NC(=O)CN)C(=O)N1CCC[C@H]1C(=O)OCC(=O)O`, the pIC50 is 3.01 in assay [1] and 2.96 in assay [2].

(Values after ChEMBL document CHEMBL2203217, “Prohormone-substrate peptide sequence recognition by peptidylglycine α-amidating monooxygenase and its reflection in increased glycolate inhibitor potency” (Bioorg Med Chem Lett, 2012).)
